From patent publication US20240336642A1 (The General Hospital Corporation, priority 2021, published 2024) come the findings set out here.

Where only a bound is given, the exact number is not on record here.

The nature of data set [1]: Solubility in formulation vehicles (Solutol HS-15/PEG400, Captisol). In kind it is physicochemical. The settings on record: 10% Solutol/90% PEG400. The procedure: Combinations of Solutol HS-15 (also known as Kolliphor HS-15) with PEG400 provided a good vehicle to solubilize the tested compounds. Specifically, 10% Solutol/90% PEG400 was used to prepare 20 mg/ml solutions of compound 1, compound 44, and compound 32. 10% Solutol/15% H2O/[…] led to 10 mg/ml solutions of the tested compounds.
20 mg/ml were obtained in 20% Captisol, allowing for intravenous delivery in the mouse stroke model.

The target in the next data set is Human 12/15-LOX E. coli (Homo sapiens (Human), UniProt P16050). Nature of the data set: Human 12/15-LOX E. coli IC50. In kind it is biochemical.
Sequence of Human 12/15-LOX E. coli (P16050 whole entry): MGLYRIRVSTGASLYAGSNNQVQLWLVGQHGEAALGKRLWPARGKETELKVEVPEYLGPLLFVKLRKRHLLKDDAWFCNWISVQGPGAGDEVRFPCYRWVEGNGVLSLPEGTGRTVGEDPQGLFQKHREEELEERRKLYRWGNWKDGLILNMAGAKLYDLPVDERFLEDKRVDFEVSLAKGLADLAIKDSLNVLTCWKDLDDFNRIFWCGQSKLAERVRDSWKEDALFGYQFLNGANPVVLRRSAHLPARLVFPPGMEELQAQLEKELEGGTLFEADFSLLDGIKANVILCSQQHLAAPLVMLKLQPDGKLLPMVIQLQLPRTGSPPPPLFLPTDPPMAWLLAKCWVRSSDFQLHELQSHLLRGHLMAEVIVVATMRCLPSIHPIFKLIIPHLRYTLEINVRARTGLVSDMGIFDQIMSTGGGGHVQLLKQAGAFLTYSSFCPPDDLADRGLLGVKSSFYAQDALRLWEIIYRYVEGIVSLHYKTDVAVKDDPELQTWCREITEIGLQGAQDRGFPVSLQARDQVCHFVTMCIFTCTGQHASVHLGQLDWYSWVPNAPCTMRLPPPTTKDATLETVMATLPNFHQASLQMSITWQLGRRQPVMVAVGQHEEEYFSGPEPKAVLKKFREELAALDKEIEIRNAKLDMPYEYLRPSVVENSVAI
The next data set relates to Mouse HT22. Nature of the data set: Mouse HT22 EC50. In kind it is cell-based. The note with it: HT-22.
A further data set deals with 12-LOX (Homo sapiens (Human), UniProt P18054). As to the kind of experiment: Selectivity versus 12-LOX. In kind it is biochemical.
Sequence of 12-LOX (P18054 whole entry): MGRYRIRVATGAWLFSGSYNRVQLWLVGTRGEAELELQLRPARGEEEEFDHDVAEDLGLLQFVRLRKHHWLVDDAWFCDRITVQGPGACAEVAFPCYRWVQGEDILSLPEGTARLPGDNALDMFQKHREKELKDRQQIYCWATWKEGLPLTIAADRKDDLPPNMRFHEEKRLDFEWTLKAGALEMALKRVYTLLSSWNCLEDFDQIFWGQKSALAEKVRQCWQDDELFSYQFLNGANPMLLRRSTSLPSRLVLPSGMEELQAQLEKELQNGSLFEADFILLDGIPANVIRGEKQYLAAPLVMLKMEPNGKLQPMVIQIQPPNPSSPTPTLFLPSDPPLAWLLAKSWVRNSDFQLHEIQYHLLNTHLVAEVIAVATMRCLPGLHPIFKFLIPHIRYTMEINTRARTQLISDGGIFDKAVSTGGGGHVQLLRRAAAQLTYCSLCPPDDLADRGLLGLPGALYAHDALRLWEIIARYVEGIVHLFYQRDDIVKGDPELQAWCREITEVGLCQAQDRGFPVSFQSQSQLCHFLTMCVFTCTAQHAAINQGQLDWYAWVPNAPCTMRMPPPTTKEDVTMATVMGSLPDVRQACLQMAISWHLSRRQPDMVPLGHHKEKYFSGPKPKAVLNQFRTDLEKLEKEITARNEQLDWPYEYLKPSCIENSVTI
In the next data set the target is 5-LOX (Homo sapiens (Human), UniProt P09917). As to the kind of experiment: Selectivity versus 5-LOX. In kind it is biochemical.
Sequence of 5-LOX (P09917 whole entry): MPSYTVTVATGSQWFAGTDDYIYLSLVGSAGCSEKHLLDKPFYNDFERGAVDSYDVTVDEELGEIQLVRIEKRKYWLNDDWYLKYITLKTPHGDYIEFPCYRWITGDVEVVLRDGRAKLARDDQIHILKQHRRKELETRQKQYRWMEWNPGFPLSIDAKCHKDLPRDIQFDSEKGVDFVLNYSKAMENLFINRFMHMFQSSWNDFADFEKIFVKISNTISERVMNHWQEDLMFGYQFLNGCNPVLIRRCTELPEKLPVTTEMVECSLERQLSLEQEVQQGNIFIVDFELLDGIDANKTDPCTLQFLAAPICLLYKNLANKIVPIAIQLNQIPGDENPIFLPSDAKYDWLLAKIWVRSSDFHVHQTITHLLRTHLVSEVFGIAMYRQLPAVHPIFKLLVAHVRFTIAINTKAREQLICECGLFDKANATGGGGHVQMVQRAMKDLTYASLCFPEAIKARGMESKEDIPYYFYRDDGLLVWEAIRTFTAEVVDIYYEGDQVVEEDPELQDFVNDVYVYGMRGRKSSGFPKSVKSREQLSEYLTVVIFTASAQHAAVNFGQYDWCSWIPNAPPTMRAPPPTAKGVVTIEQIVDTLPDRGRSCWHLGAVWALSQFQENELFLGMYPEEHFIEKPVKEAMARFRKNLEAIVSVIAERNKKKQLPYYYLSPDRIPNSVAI
The next data set concerns the target COX-2 (Homo sapiens (Human), UniProt P35354). As to the kind of experiment: Selectivity versus COX-2. In kind it is biochemical.
Data set [2] relates to experimental stroke model in mice (MCAO). Nature of the data set: Long-term outcome after MCAO: corner test. In kind it is in vivo, mouse. The note with it: 40 mg/kg i.v. 2 hours post reperfusion. As to the method: (§1) Long-term outcome experiment: 40 mg/kg cmpd. 1 delivered I.V. 2 hours post reperfusion, same as short term, compared to vehicle (10% solutol/90% PEG400). 45 mice operated, and 27 survived, mice were sacrificed on day 30.

Data set [3] has the same test system. As to the kind of experiment: Long-term outcome after MCAO: foot fault test. In kind it is in vivo, mouse. The note with it: 40 mg/kg i.v. 2 hours post reperfusion. The procedure: as §1
Data set [4] has the same test system. As to the kind of experiment: Long-term outcome after MCAO: adhesive (tape) removal test. The settings on record: 40 mg/kg i.v. 2 hours post reperfusion. In kind it is in vivo, mouse. The procedure:
as §1

Data set [5] has the same test system. As to the kind of experiment: Long-term outcome after MCAO: Y maze. In kind it is in vivo, mouse. The settings on record: 40 mg/kg i.v. 2 hours post reperfusion, versus vehicle. The procedure: as §1

Sequence of COX-2 (P35354 18-604): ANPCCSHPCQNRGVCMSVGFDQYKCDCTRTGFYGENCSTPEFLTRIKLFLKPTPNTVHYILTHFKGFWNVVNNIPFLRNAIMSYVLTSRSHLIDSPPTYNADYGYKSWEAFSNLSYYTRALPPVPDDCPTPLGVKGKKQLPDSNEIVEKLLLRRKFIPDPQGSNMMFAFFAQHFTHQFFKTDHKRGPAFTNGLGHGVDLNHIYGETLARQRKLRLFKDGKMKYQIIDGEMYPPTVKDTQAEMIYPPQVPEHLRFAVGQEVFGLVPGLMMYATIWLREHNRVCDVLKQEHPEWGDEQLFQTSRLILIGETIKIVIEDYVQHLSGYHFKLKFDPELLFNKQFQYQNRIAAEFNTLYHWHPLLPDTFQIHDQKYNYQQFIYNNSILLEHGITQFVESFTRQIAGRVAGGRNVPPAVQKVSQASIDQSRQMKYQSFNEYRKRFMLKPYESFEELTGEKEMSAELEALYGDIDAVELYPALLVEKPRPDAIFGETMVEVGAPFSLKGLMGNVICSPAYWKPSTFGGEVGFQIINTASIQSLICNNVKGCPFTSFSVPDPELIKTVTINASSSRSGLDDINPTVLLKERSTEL

Turning to `CNc1oc(-c2cc(Cl)cc(Cl)c2Cl)nc1C#N` [Compound 1, 5-(methylamino)-2-(2,3,5-trichlorophenyl) oxazole-4-carbonitrile], the solution concentration achieved in [1] is 20 mg/mL. Moreover, at Human 12/15-LOX E. coli, the “Human 12/15-LOX E. coli % max” value is 88%. In addition, at Human 12/15-LOX E. coli, the IC50 (commonly the point on the concentration scale where inhibition reaches its midpoint) came out at 110 nM. The EC50 – broadly, the concentration that produces a half-maximal response – in the data set with Mouse HT22 was found to be 5000 nM. Further, at 12-LOX, the “selectivity over 12-LOX” value is on record as over 400 fold. Further, at 5-LOX, the “selectivity over 5-LOX” value is reported as over 400 fold. The “selectivity over COX-2” value on COX-2 is over 400 fold. The “Corner test, improvement compared to vehicle treatment” value turned out to be 68.7% in [2] (Week 1) and 75.4% in data set [2] (Week 4). Moreover, the entries for the “Foot fault test, improvement compared to vehicle treatment” value in data set [3] (Week 1) and in [3] (Week 4) were 61.7% and 77.0%, respectively. The “Adhesive (tape) removal test, improvement compared to vehicle treatment” value in data set [4] (Week 1) is reported as 65.6%; in data set [4] (Week 4) it was 93.3%. The “Y maze % alternation” value in data set [5] is reported as “no significant differences”. Moreover, the “Y maze entry number” value in data set [5] is recorded as “no difference between treatment groups”.
